Results published in article PMC9833666, “Designing and identifying β-hairpin peptide macrocycles with antibiotic potential” (Science Advances, 2023).
Where two headings read alike, the source gives them in different places. Bridge positions count the residues as written; N and C are the ends. Peptide text beside a SMILES is read from it.

Tests used:
[1] = tested on: Acinetobacter baumannii AB5075
Protocol: MICs were performed by a modifiedClinical and Laboratory Standards Institute) procedure. […] Separately, E. coli W3110 or A. baumannii AB5075 was grown overnight in 5 ml of standard MH at 37°C. Cells from these cultures were diluted to a concentration of 5 × 10^5 to 6 × 10^5 cells/ml in either standard MH, MHII, RPMI, or fetal bovine serum, and 90 μl was added to each well of the 96-well plate containing diluted peptide. Plates were wrapped twice in parafilm and incubated at 37°C for 18 to 24 hours. Wells were examined by eye against wells with no bacteria for signs of growth. MICs were reported as the minimum concentration with no observable growth. In cases where triplicate samples differed, the concentration supported by the median of the three replicates was reported. […]
For consistency, all SynCH peptides were resuspended at 10 mg/ml in water. Peptides were then visually inspected for any lack of solubility (Data File S1). […]
We had this library commercially synthesized and tested its ability to inhibit the growth of Acinetobacter baumannii AB5075, a clinically isolated Carbapenem Resistant Acinetobacter (CRA) pathogen. MICs were performed in MH as well as 100% FBS, which is likely more representative of the in vivo environment. […]

[2] = tested on: Escherichia coli W3110; format: cell-based; conditions: W3110

CC(C)C[C@@H]1NC(=O)[C@H](CO)NC(=O)[C@H](C(C)C)NC(=O)[C@H](CCCCN)NC(=O)[C@H](CCCNC(=N)N)NC(=O)[C@H](CCCNC(=N)N)NC(=O)[C@H](CCCNC(=N)N)NC(=O)[C@H](CC(N)=O)NC(=O)[C@H](CC(C)C)NC(=O)[C@H](CCCNC(=N)N)NC(=O)[C@H](C(C)C)NC(=O)[C@H](CCCNC(=N)N)NC(=O)[C@H](CC(C)C)NC(=O)[C@@H](N)CSSC[C@@H](C(=O)O)NC(=O)[C@H](C(C)C)NC(=O)[C@H](CCC(N)=O)NC1=O [SySA-5.18] (H-CLRVRLNRRRKVSLQVC-OH; disulfide 1-17)
AB5075 MIC FBS ([1]; AB5075): 128 µg/mL
AB5075 MIC MH ([1]; AB5075): 8 µg/mL

CC(C)C[C@@H]1NC(=O)[C@H](CO)NC(=O)[C@H](C(C)C)NC(=O)[C@H](CCCCN)NC(=O)[C@H](CCCNC(=N)N)NC(=O)CNC(=O)[C@H](CCCNC(=N)N)NC(=O)[C@H](CCCNC(=N)N)NC(=O)[C@H](CC(N)=O)NC(=O)[C@H](CC(C)C)NC(=O)[C@H](CCCNC(=N)N)NC(=O)[C@H](C(C)C)NC(=O)[C@H](CCCNC(=N)N)NC(=O)[C@@H](N)CSSC[C@@H](C(=O)O)NC(=O)[C@H](CCC(N)=O)NC1=O [SySA-5.23] (H-CRVRLNRRGRKVSLQC-OH; disulfide 1-16)
AB5075 MIC FBS ([1]; AB5075): > 128 µg/mL
AB5075 MIC MH ([1]; AB5075): 8 µg/mL

CC(C)C[C@@H]1NC(=O)[C@H](CO)NC(=O)[C@H](C(C)C)NC(=O)[C@H](CCCCN)NC(=O)[C@H](C(C)C)NC(=O)[C@H](CCCNC(=N)N)NC(=O)CNC(=O)[C@H](CCCNC(=N)N)NC(=O)[C@H](CCCNC(=N)N)NC(=O)[C@H](CC(N)=O)NC(=O)[C@H](CCCNC(=N)N)NC(=O)[C@H](CC(C)C)NC(=O)[C@H](CCCNC(=N)N)NC(=O)[C@H](C(C)C)NC(=O)[C@H](CCCNC(=N)N)NC(=O)[C@@H](N)CSSC[C@@H](C(=O)O)NC(=O)[C@H](CCCNC(=N)N)NC1=O [SySA-5.6] (H-CRVRLRNRRGRVKVSLRC-OH; disulfide 1-18)
AB5075 MIC FBS ([1]; AB5075): 128 µg/mL
AB5075 MIC MH ([1]; AB5075): 4 µg/mL

Protegrin-1 [reference compound]
MIC [2]: 0.5 to 4 µg/mL
W3110 MIC MH [2]: 0.5 µg/mL
W3110 MIC RPMI [2]: 0.5 µg/mL
AB5075 MIC FBS ([1]; 100% fetal bovine serum, median of triplicate): 32 µg/mL
AB5075 MIC MH ([1]; Mueller-Hinton, median of triplicate): 1 µg/mL

CC(C)C[C@@H]1NC(=O)[C@H](CCCNC(=N)N)NC(=O)[C@H](C(C)C)NC(=O)[C@H](CCCCN)NC(=O)[C@H](C(C)C)NC(=O)[C@H](CCCNC(=N)N)NC(=O)[C@H](CCCNC(=N)N)NC(=O)[C@H](CCCNC(=N)N)NC(=O)[C@H](CCCNC(=N)N)NC(=O)[C@H](CC(N)=O)NC(=O)[C@H](CCCNC(=N)N)NC(=O)[C@H](CC(C)C)NC(=O)[C@H](CCCNC(=N)N)NC(=O)[C@H](C(C)C)NC(=O)[C@H](CCCNC(=N)N)NC(=O)[C@@H](N)CSSC[C@@H](C(=O)O)NC(=O)[C@H](CCCNC(=N)N)NC1=O [SySA-5.7] (H-CRVRLRNRRRRVKVRLRC-OH; disulfide 1-18)
AB5075 MIC FBS ([1]; AB5075): > 128 µg/mL
AB5075 MIC MH ([1]; AB5075): 8 µg/mL
